Experimental data as given in DBAASP.
In brackets after ≈: the same amount, converted by molar mass. Several values for one entry are separate records, joined by “and”; a condition that tells them apart may be missing. Equal values may be shown once. Blank lines part the entries; values can stand above or below the molecule they belong to.

Columns and labels:
Test in all cases: ≥ marks a high value that may be exact or a test limit, other limits are often not marked, values filed in µg/mL are converted to µM
[1] = system: Pseudomonas aeruginosa H1001
[2] = system: Acinetobacter baumannii ATCC 17978
[3] = system: Escherichia coli ATCC 8739
[4] = system: Escherichia coli DSM 1103
[5] = system: Pseudomonas aeruginosa DSM 1117
[6] = system: Staphylococcus aureus DSM 1104
[7] = system: Staphylococcus aureus HNCMO 112011
[8] = system: Staphylococcus epidermidis DSM 1798
[9] = system: Batrachochytrium dendrobatidis
[10] = system: Escherichia coli ATCC 25726
[11] = system: Staphylococcus aureus ATCC 25923
[12] = system: Staphylococcus aureus NCTC 8325
[13] = system: Escherichia coli ATCC 25922
[14] = system: Escherichia coli BL21
[15] = system: Pseudomonas aeruginosa PAO1
[16] = system: Streptococcus pyogenes M1T1 5448

MIC [1]: 0.11 µM (≈ 0.27 µg/mL)
SMILES: CC[C@H](C)[C@H](NC(=O)[C@H](CCCN=C(N)N)NC(=O)[C@H](CCCN=C(N)N)NC(=O)[C@@H]1CCCN1C(=O)[C@H](CC(C)C)NC(=O)[C@H](CCCN=C(N)N)NC(=O)[C@@H]1CCCN1C(=O)[C@H](CCCN=C(N)N)NC(=O)[C@@H]1CCCN1C(=O)[C@H](CC(C)C)NC(=O)[C@H](Cc1ccc(O)cc1)NC(=O)[C@@H]1CCCN1C(=O)[C@@H]1CCCN1C(=O)[C@H](CCCCN)NC(=O)[C@H](CC(=O)O)NC(=O)[C@@H](N)C(C)C)C(=O)N[C@@H](Cc1ccc(O)cc1)C(=O)N[C@@H](CC(N)=O)C(=O)N[C@@H](CCCN=C(N)N)C(=O)NCC(=O)O [VDKPPYLPRPRLPRRIYNRG]

MIC [2]: 3.1 µM (≈ 10.3 µg/mL)
MIC [3]: 3.1 µM (≈ 10.3 µg/mL)
MIC [7]: 3.1 µM (≈ 10.3 µg/mL)
SMILES: CSCC[C@H](NC(=O)[C@H](CCCCN)NC(=O)[C@H](Cc1ccccc1)NC(=O)[C@H](CC(N)=O)NC(=O)[C@H](CC(C)C)NC(=O)[C@@H]1CCCN1C(=O)[C@@H](N)CCCN=C(N)N)C(=O)N[C@@H](CC(C)C)C(=O)N[C@@H](CCCN=C(N)N)C(=O)N[C@@H](Cc1ccccc1)C(=O)N[C@@H](Cc1c[nH]c2ccccc12)C(=O)NCC(=O)N[C@@H](CCC(N)=O)C(=O)N[C@@H](CCC(N)=O)C(=O)N[C@@H](CCC(N)=O)C(=O)N[C@@H](CS)C(=O)N[C@@H](CCCN=C(N)N)C(=O)N[C@@H](CCCN=C(N)N)C(=O)N1CCC[C@H]1C(=O)N[C@@H](CC(C)C)C(=O)N[C@@H](Cc1ccc(O)cc1)C(=O)N[C@@H](CS)C(=O)N[C@@H](CCCN=C(N)N)C(=O)N[C@@H](CCCN=C(N)N)C(=O)N[C@@H](CCCN=C(N)N)C(=O)O [RPLNFKMLRFWGQQQCRRPLYCRRR]

MIC [14]: 2 µM (≈ 6.09 µg/mL)
MIC [15]: 32 µM (≈ 97.4 µg/mL)
MIC [16]: 0.125 µM (≈ 0.381 µg/mL)
SMILES: CC[C@H](C)[C@H](NC(=O)[C@H](CCCCN)NC(=O)[C@H](C)NC(=O)[C@H](CCCN=C(N)N)NC(=O)[C@H](CCCCN)NC(=O)CNC(=O)[C@H](CCCCN)NC(=O)[C@H](CCC(=O)O)NC(=O)[C@H](CCC(N)=O)NC(=O)[C@@H](NC(=O)[C@@H](NC(=O)[C@H](CCCCN)NC(=O)[C@H](CCCCN)NC(=O)[C@H](CC(C)C)NC(=O)[C@H](Cc1ccccc1)NC(=O)[C@H](CCC(N)=O)NC(=O)[C@H](CCCN=C(N)N)NC(=O)[C@@H](NC(=O)[C@@H](NC(=O)[C@H](CCC(=O)O)NC(=O)[C@H](CCCCN)NC(=O)CNC(=O)[C@H](C)N)[C@@H](C)O)[C@@H](C)CC)[C@@H](C)O)[C@@H](C)CC)C(=O)N[C@@H](Cc1c[nH]c2ccccc12)C(=O)N[C@@H](Cc1c[nH]c2ccccc12)C(=O)O [AGKETIRQFLKKTIQEKGKRAKIWW]

MIC [14]: 4 µM (≈ 12.3 µg/mL)
MIC [15]: > 128 µM
MIC [16]: 2 µM (≈ 6.13 µg/mL)
SMILES: CC[C@H](C)[C@H](NC(=O)[C@H](Cc1ccccc1)NC(=O)[C@H](C)NC(=O)[C@H](CCCCN)NC(=O)[C@H](CCCCN)NC(=O)CNC(=O)[C@H](CCCN=C(N)N)NC(=O)[C@H](CCCCN)NC(=O)[C@H](CCCN=C(N)N)NC(=O)[C@H](CC(C)C)NC(=O)[C@H](CCC(=O)O)NC(=O)[C@H](CCC(=O)O)NC(=O)[C@H](CC(C)C)NC(=O)[C@H](CC(C)C)NC(=O)[C@H](Cc1ccc(O)cc1)NC(=O)[C@H](CCCCN)NC(=O)[C@@H](NC(=O)[C@H](CC(C)C)NC(=O)[C@H](C)NC(=O)[C@H](CCC(N)=O)NC(=O)[C@H](CCCN=C(N)N)NC(=O)CNC(=O)[C@H](C)N)[C@@H](C)O)C(=O)N[C@@H](Cc1c[nH]c2ccccc12)C(=O)N[C@@H](Cc1c[nH]c2ccccc12)C(=O)O [AGRQALTKYLLEELRKRGKKAFIWW]

MIC [2]: 3.1 µM (≈ 8.54 µg/mL)
MIC [3]: 6.3 µM (≈ 17.4 µg/mL)
MIC [7]: 3.1 µM (≈ 8.54 µg/mL)
SMILES: CC[C@H](C)[C@H](NC(=O)[C@H](CCCCN)NC(=O)[C@H](CCCCN)NC(=O)[C@H](C)NC(=O)[C@H](CC(C)C)NC(=O)[C@H](C)NC(=O)[C@H](C)NC(=O)[C@H](CC(C)C)NC(=O)[C@H](C)NC(=O)[C@@H](N)CCCCN)C(=O)N[C@@H](CC(C)C)C(=O)N[C@@H](CCC(N)=O)C(=O)N[C@@H](CCC(N)=O)C(=O)N[C@@H](CS)C(=O)N[C@@H](CCCN=C(N)N)C(=O)N[C@@H](CCCN=C(N)N)C(=O)N1CCC[C@H]1C(=O)N[C@@H](CC(C)C)C(=O)N[C@@H](Cc1ccc(O)cc1)C(=O)N[C@@H](CS)C(=O)N[C@@H](CCCN=C(N)N)C(=O)N[C@@H](CCCN=C(N)N)C(=O)N[C@@H](CCCN=C(N)N)C(=O)O [KALAALAKKILQQCRRPLYCRRR]

MIC [1]: ≥ 174 µM
SMILES: CC[C@H](C)[C@H](NC(=O)[C@H](C)NC(=O)[C@@H](NC(=O)[C@H](CCCCN)NC(=O)[C@H](CCCCN)NC(=O)[C@H](Cc1cnc[nH]1)NC(=O)[C@@H](NC(=O)[C@@H](N)CCCN=C(N)N)C(C)C)[C@@H](C)CC)C(=O)N[C@@H](CO)C(=O)N[C@H](C(=O)O)C(C)C [RVHKKIAISV]

The next lines start with the molecule.

SMILES: CC(C)C[C@H](NC(=O)[C@H](CCCCN)NC(=O)[C@H](CCC(N)=O)NC(=O)[C@H](CC(N)=O)NC(=O)[C@H](CC(C)C)NC(=O)[C@H](CC(=O)O)NC(=O)[C@H](CCC(=O)O)NC(=O)[C@@H]1CCCN1C(=O)[C@@H](NC(=O)[C@H](C)NC(=O)CN)[C@@H](C)O)C(=O)N[C@@H](CO)C(N)=O [GATPEDLNQKLS]
MIC [1]: ≥ 196 µM

SMILES: CC[C@H](C)[C@H](NC(=O)[C@H](CCCCN)NC(=O)[C@H](CCCCN)NC(=O)[C@H](C)NC(=O)[C@H](CC(C)C)NC(=O)[C@H](C)NC(=O)[C@H](C)NC(=O)[C@H](CC(C)C)NC(=O)[C@H](C)NC(=O)[C@H](CCCCN)NC(=O)[C@H](CC(C)C)NC(=O)[C@H](CC(N)=O)NC(=O)[C@@H](NC(=O)[C@H](CCCCN)NC(=O)CNC(=O)[C@H](CC(C)C)NC(=O)[C@H](CC(C)C)NC(=O)[C@H](Cc1ccc(O)cc1)NC(=O)CNC(=O)[C@H](C)NC(=O)[C@H](CO)NC(=O)[C@H](CC(N)=O)NC(=O)[C@H](CC(C)C)NC(=O)[C@@H](NC(=O)[C@H](Cc1c[nH]c2ccccc12)NC(=O)CN)[C@@H](C)O)[C@@H](C)CC)C(=O)N[C@@H](CC(C)C)C(=O)O [GWTLNSAGYLLGKINLKALAALAKKIL]
MIC [2]: 3.1 µM (≈ 8.81 µg/mL)
MIC [3]: 3.1 µM (≈ 8.81 µg/mL)
MIC [4]: ≥ 43 µM
MIC [5]: ≥ 86 µM
MIC [6]: ≥ 43 µM
MIC [7]: 3.1 µM (≈ 8.81 µg/mL)
MIC [8]: 5 µM (≈ 14.2 µg/mL)

SMILES: CC[C@H](C)[C@H](NC(=O)[C@@H]1CCCN1C(=O)[C@H](CC(C)C)NC(=O)[C@@H](N)Cc1ccccc1)C(=O)N[C@H](C(=O)NCC(=O)N[C@@H](CCCCN)C(=O)N[C@@H](CC(C)C)C(=O)N[C@@H](CC(C)C)C(=O)N[C@@H](CO)C(=O)NCC(=O)N[C@@H](CC(C)C)C(=O)N[C@@H](CC(C)C)C(N)=O)C(C)C [FLPIVGKLLSGLL]
MIC [9]: ≥ 49.6 µM
MIC [10]: ≥ 128 µM
MIC [11]: 8 µM (≈ 11 µg/mL)
MIC [12]: ≥ 110 µM

SMILES: CC[C@H](C)[C@H](NC(=O)[C@H](CCCCN)NC(=O)[C@H](CS)NC(=O)[C@H](C)NC(=O)[C@@H](NC(=O)[C@H](CC(C)C)NC(=O)[C@H](CC(N)=O)NC(=O)[C@@H](NC(=O)CNC(=O)[C@H](CC(C)C)NC(=O)[C@H](CCCNC(=N)N)NC(=O)[C@H](C)NC(=O)[C@H](CC(C)C)NC(=O)[C@H](CC(=O)O)NC(=O)[C@H](CCCCN)NC(=O)CNC(=O)[C@H](CC(C)C)NC(=O)CNC(=O)[C@H](CCCCN)NC(=O)[C@H](CO)NC(=O)[C@H](C)NC(=O)[C@H](Cc1ccccc1)NC(=O)[C@H](CCCCN)NC(=O)[C@H](C)NC(=O)[C@@H](NC(=O)CNC(=O)[C@H](CCCNC(=N)N)NC(=O)[C@H](Cc1ccccc1)NC(=O)[C@@H](NC(=O)[C@H](CO)NC(=O)[C@H](CO)NC(=O)[C@H](Cc1ccccc1)NC(=O)CN)[C@@H](C)CC)C(C)C)C(C)C)C(C)C)C(=O)N[C@@H](CO)C(=O)N[C@@H](CCCCN)C(=O)N[C@@H](CCC(N)=O)C(=O)N[C@@H](CS)C(=O)O [GFSSIFRGVAKFASKGLGKDLARLGVNLVACKISKQC]
MIC [9]: ≥ 50 µM and 25 µM
MIC [13]: 10 µM (≈ 38.7 µg/mL)

SMILES: CC[C@H](C)[C@H](NC(=O)[C@H](Cc1c[nH]c2ccccc12)NC(=O)[C@H](CCC(N)=O)NC(=O)[C@H](CCCN=C(N)N)NC(=O)CNC(=O)[C@H](C)N)C(=O)N[C@@H](CCCCN)C(=O)N[C@@H](C)C(=O)N[C@@H](Cc1ccc(O)cc1)C(=O)N[C@@H](CC(C)C)C(=O)N[C@@H](CCCN=C(N)N)C(=O)N[C@@H](CCCN=C(N)N)C(=O)N[C@@H](CCC(=O)O)C(=O)N[C@H](C(=O)N[C@@H](CCCN=C(N)N)C(=O)N[C@@H](CCCCN)C(=O)N[C@@H](CCCN=C(N)N)C(=O)NCC(=O)N[C@@H](CCCN=C(N)N)C(=O)N[C@@H](CCCCN)C(=O)N[C@@H](C)C(=O)N[C@H](C(=O)N[C@H](C(=O)N[C@@H](C)C(=O)N[C@@H](Cc1c[nH]c2ccccc12)C(=O)O)[C@@H](C)CC)C(C)C)[C@@H](C)CC [AGRQWIKAYLRREIRKRGRKAVIAW]
MIC [14]: 2 µM (≈ 6.17 µg/mL)
MIC [15]: 16 µM (≈ 49.3 µg/mL)
MIC [16]: 2 µM (≈ 6.17 µg/mL)
